Measured values as given in patent US20100069493A1, “AQUEOUS PHARMACEUTICAL FORMULATION OF 4-[((4-CARBOXYBUTYL)-AMINO)METHYL]BENZOIC ACID” (BAYER HEALTHCARE AG, priority 2006, published 2010).
In brackets after ≈: the same amount, converted by molar mass.

Legend:
Format in all cases: physicochemical
[1] = Titration experiments with 0.01 N hydrochloric acid (acid burden, precipitation)
Protocol: It was possible to show in titration experiments that an acid burden of 0.01 N hydrochloric acid in solutions without trometamol leads to such a large fall in pH even on addition of less than 1 ml to the total content of a 50 ml infusion bottle that the active ingredient precipitates. On addition of 0.001 M trometamol buffer, precipitations are to be observed on addition of about 5 ml of 0.01 N hydrochloric acid. A solution with a trometamol content of 0.01 M is by contrast stable to precipitations on addition of acid up to more than 35 ml of 0.01 N hydrochloric acid.

[2] = Dilution experiments on 0.05 mg/ml solutions with and without trometamol (Table 2); conditions: for Appearance of the solution: 0.05 mg/ml solution with trometamol 0.01 molar, pH before dilution 8.74
Protocol: Dilution experiments on solutions with an active ingredient content of 0.05 mg/ml have shown that these can be diluted in a pH-stable and thus problem-free manner over a wide range only if they are buffered with a sufficient quantity of trometamol.
Without use of trometamol and on use of trometamol in a concentration of only 0.001 M, the pH falls greatly even with slight dilution (1+5). There is a high risk in this case that the active ingredient will precipitate on dilution with other infusion solutions (Table 2 a-c).

[3] = pKa of the ionizable groups of compound 1
Excerpt: (§1) However, there are limits to increasing the pH due to the use as infusion. Values of pH above pH 9.0 are borderline in relation to physiological tolerability.

[4] = Saturation solubility of compound 1 in various buffer media; conditions: aqueous buffer, thermodynamic from solid
Excerpt: as §1

[5] = Dilution of 0.05 mg/ml compound 1 / 0.01 M trometamol solutions with standard infusion solutions (Table 3); conditions: trometamol 0.01 M
Protocol: Solutions comprising compound 1 in a concentration of 0.05 mg/ml and trometamol in a concentration of 0.01 M can be diluted problem-free with standard infusion solutions over a wide range. The dilution experiments shown in Table 3 were carried out concerning this:
All the dilution experiments were carried out in duplicate. […] It emerged that there is a marked decrease in the pH values to the region below 8.0 only with dilutions greater than 1:40. Precipitation of the active ingredient is no longer a worry with such great dilutions, because the solubility limit of compound 1 is no longer reached owing to the large amount of dilution medium.

- Volume of 0.01 N hydrochloric acid at which precipitations are observed ([1]; solution with 0.001 M trometamol buffer, 50 ml infusion bottle): about 5 ml
- Volume of 0.01 N hydrochloric acid up to which the solution is stable to precipitations ([1]; solution with trometamol content of 0.01 M, 50 ml infusion bottle): more than 35 ml
- Volume of 0.01 N hydrochloric acid at which the active ingredient precipitates ([1]; solution without trometamol, added to total content of a 50 ml infusion bottle): less than 1 ml
- pH after dilution ([2]; 0.05 mg/ml solution with trometamol 0.001 molar, mixing ratio 1 + 5, NaCl soln, final volume 251 ml, pH before dilution 8.69): 8.43
- pH after dilution ([2]; 0.05 mg/ml solution with trometamol 0.001 molar, mixing ratio 1 + 10, NaCl soln, final volume 275 ml, pH before dilution 8.69): 8.05
- pH after dilution ([2]; 0.05 mg/ml solution with trometamol 0.001 molar, mixing ratio 1 + 250, NaCl soln, final volume 300 ml, pH before dilution 8.69): 6.61
- Appearance of the solution ([2]; mixing ratio 1 + 5, NaCl soln, final volume 251 ml): clear
- Appearance of the solution ([2]; mixing ratio 1 + 10, NaCl soln, final volume 275 ml): clear
- Appearance of the solution ([2]; mixing ratio 1 + 250, NaCl soln, final volume 300 ml): clear
- pH after dilution ([2]; 0.05 mg/ml solution without trometamol, mixing ratio 1 + 5, NaCl soln, final volume 251 ml, pH before dilution 8.51): 6.40
- pH after dilution ([2]; 0.05 mg/ml solution without trometamol, mixing ratio 1 + 10, NaCl soln, final volume 275 ml, pH before dilution 8.51): 6.58
- pH after dilution ([2]; 0.05 mg/ml solution without trometamol, mixing ratio 1 + 250, NaCl soln, final volume 300 ml, pH before dilution 8.51): 6.70
- pKa1 [3]: 4.0
- pKa2 [3]: 4.7
- pKa3 [3]: 8.3
- solubility ([4]; Ammonium chloride buffer solution, actual pH 9.5): 75700 µg/mL (≈ 134000 µM)
- solubility ([4]; Citric acid-phosphate buffer, actual pH 7.4): 13.1 µg/mL (≈ 23.2 µM)
- solubility ([4]; Citric acid-phosphate buffer, actual pH 8.0): 64.2 µg/mL (≈ 113 µM)
- solubility ([4]; Diethanolamine buffer solution, actual pH 10.0): 89800 µg/mL (≈ 159000 µM)
- solubility ([4]; HEPES buffer solution, actual pH 7.5): 35.8 µg/mL (≈ 63.3 µM)
- solubility ([4]; Phosphate buffer solution (0.2 M), actual pH 7.5): 15.8 µg/mL (≈ 27.9 µM)
- solubility ([4]; Phosphate buffer solution (0.3 M), actual pH 7.5): 1.3 µg/mL (≈ 2.3 µM)
- solubility ([4]; Phosphate buffer solution, actual pH 6.0): 0.2 µg/mL (≈ 0.354 µM)
- solubility ([4]; Phosphate buffer solution, actual pH 7.2): 8.4 µg/mL (≈ 14.8 µM)
- solubility ([4]; Phosphate buffer solution, actual pH 7.4): 21.5 µg/mL (≈ 38 µM)
- solubility ([4]; Phosphate buffer solution, actual pH 8.0): 3.2 µg/mL (≈ 5.66 µM)
- solubility ([4]; Phosphate buffer solution, actual pH 9.0): 683 µg/mL (≈ 1210 µM)
- solubility ([4]; Saline-phosphate buffer, actual pH 7.4): 19 µg/mL (≈ 33.6 µM)
- solubility ([4]; Sodium citrate buffer solution, actual pH 7.8): 160 µg/mL (≈ 283 µM)
- solubility ([4]; Tetrabutylammonium buffer solution, actual pH 7.0): 12.8 µg/mL (≈ 22.6 µM)
- Precipitation on dilution ([5]; all dilutions of Table 3, in duplicate): No precipitations occurred
- pH after dilution ([5]; mixing ratio 1:2, NaCl soln, final volume 10 ml): 8.67
- pH after dilution ([5]; mixing ratio 1:4, NaCl soln, final volume 20 ml): 8.65
- pH after dilution ([5]; mixing ratio 1:10, Glucose soln, final volume 50 ml): 8.37
- pH after dilution ([5]; mixing ratio 1:10, NaCl soln, final volume 50 ml): 8.57
- pH after dilution ([5]; mixing ratio 1:10, Placebo soln, final volume 50 ml): 8.72
- pH after dilution ([5]; mixing ratio 1:10, Water, final volume 50 ml): 8.61
- pH after dilution ([5]; mixing ratio 1:20, NaCl soln, final volume 100 ml): 8.54
- pH after dilution ([5]; mixing ratio 1:40, NaCl soln, final volume 200 ml): 8.40
- pH after dilution ([5]; mixing ratio 1:200, NaCl soln, final volume 1000 ml): 7.85
SMILES: O=C(O)CCCCN(CCc1ccccc1OCc1ccc(CCc2ccccc2)cc1)Cc1ccc(C(=O)O)cc1 [compound 1, 4-[((4-Carboxybutyl)-{2-[(4-phenethylbenzyl)oxy]phenethyl}amino)methyl]benzoic acid]
